Values joined by “and” are separate entries in the source; they are usually repeats but may differ in a detail not shown here. Equal values may be shown once. Inconclusive results and toxic doses are left out. Rule for the calls: active = survival T/C of 150% or more; inactive = T/C below 125% in these data.
Test system: BDF1 mice, L1210 leukemia sc, survival T/C
Test: NCI In Vivo Anticancer Drug Screen. Data for tumor model L1210 Leukemia (subcutaneous) in B6D2F1 (BDF1) mice
Details: higher = longer survival
Procedure, shortened: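 Tumors were transplanted into mice, the animals were treated with compound, survival or tumor size was then measured, and treated values were divided by vehicle-control values.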

[1] = endpoint: mean survival time, dose: 1.0 mg/kg/injection, schedule: Q01DX009 (ip), vehicle: sodium bicarbonate
[2] = endpoint: mean survival time, dose: 2.0 mg/kg/injection, schedule: Q01DX009 (ip), vehicle: sodium bicarbonate
[3] = endpoint: mean survival time, dose: 4.0 mg/kg/injection, schedule: Q01DX009 (ip), vehicle: sodium bicarbonate
[4] = endpoint: mean survival time, dose: 4.0 mg/kg/injection, schedule: Q04DX003 (ip), vehicle: sodium bicarbonate
[5] = endpoint: mean survival time, dose: 8.0 mg/kg/injection, schedule: Q01DX009 (ip), vehicle: sodium bicarbonate
[6] = endpoint: mean survival time, dose: 8.0 mg/kg/injection, schedule: Q04DX003 (ip), vehicle: sodium bicarbonate
[7] = endpoint: mean survival time, dose: 16.0 mg/kg/injection, schedule: Q01DX009 (ip), vehicle: sodium bicarbonate
[8] = endpoint: mean survival time, dose: 16.0 mg/kg/injection, schedule: Q04DX003 (ip), vehicle: sodium bicarbonate
[9] = endpoint: mean survival time, dose: 32.0 mg/kg/injection, schedule: Q04DX003 (ip), vehicle: sodium bicarbonate
[10] = endpoint: mean survival time, dose: 64.0 mg/kg/injection, schedule: Q04DX003 (ip), vehicle: sodium bicarbonate
[11] = endpoint: median survival time, dose: 39.0 mg/kg/injection, schedule: Q01DX Z (sc), vehicle: methylcellulose (MC)
[12] = endpoint: median survival time, dose: 65.0 mg/kg/injection, schedule: Q01DX Z (sc), vehicle: methylcellulose (MC)
[13] = endpoint: median survival time, dose: 108.0 mg/kg/injection, schedule: Q01DX Z (sc), vehicle: methylcellulose (MC)
[14] = endpoint: median survival time, dose: 180.0 mg/kg/injection, schedule: Q01DX Z (sc), vehicle: methylcellulose (MC)
[15] = endpoint: median survival time, dose: 300.0 mg/kg/injection, schedule: Q01DX Z (sc), vehicle: methylcellulose (MC)
[16] = endpoint: median survival time, dose: 500.0 mg/kg/injection, schedule: Q01DX Z (sc), vehicle: methylcellulose (MC)

Measured: T/C

O=C1NC(O)CCN1C1OC(CO)C(O)C1O (stereo unspecified)
inactive: endpoint: median survival time, dose: 125.0 mg/kg/injection, schedule: Q06HX018 (sc), vehicle: saline 102 % of control | endpoint: median survival time, dose: 125.0 mg/kg/injection, schedule: Q## X018 (sc), vehicle: saline 102 % of control | endpoint: median survival time, dose: 250.0 mg/kg/injection, schedule: Q06HX018 (sc), vehicle: saline 102 % of control | endpoint: median survival time, dose: 250.0 mg/kg/injection, schedule: Q## X018 (sc), vehicle: saline 102 % of control | endpoint: median survival time, dose: 500.0 mg/kg/injection, schedule: Q06HX018 (sc), vehicle: saline 108 % of control | endpoint: median survival time, dose: 500.0 mg/kg/injection, schedule: Q## X018 (sc), vehicle: saline 108 % of control | endpoint: median survival time, dose: 1000.0 mg/kg/injection, schedule: Q06HX018 (sc), vehicle: saline 107 % of control | endpoint: median survival time, dose: 1000.0 mg/kg/injection, schedule: Q## X018 (sc), vehicle: saline 107 % of control

N=[N+]=CC(=O)OCC(N)C(=O)O (stereo unspecified)
active: endpoint: median survival time, dose: 8.0 mg/kg/injection, schedule: Q01DX Z (sc), vehicle: water 172 % of control | endpoint: median survival time, dose: 16.0 mg/kg/injection, schedule: Q01DX Z (sc), vehicle: water 168 % of control
inactive: endpoint: median survival time, dose: 3.0 mg/kg/injection, schedule: Q01DX Z (sc), vehicle: saline 105 % of control | endpoint: median survival time, dose: 4.0 mg/kg/injection, schedule: Q01DX Z (sc), vehicle: water 110 % of control | endpoint: median survival time, dose: 5.0 mg/kg/injection, schedule: Q01DX Z (sc), vehicle: saline 110 % of control | endpoint: median survival time, dose: 6.72 mg/kg/injection, schedule: Q01DX Z (sc), vehicle: water 110 % of control | endpoint: median survival time, dose: 8.0 mg/kg/injection, schedule: Q02DX Z (sc), vehicle: water 100 % of control | endpoint: median survival time, dose: 8.4 mg/kg/injection, schedule: Q01DX Z (sc), vehicle: saline 110 % of control | endpoint: median survival time, dose: 11.2 mg/kg/injection, schedule: Q01DX Z (sc), vehicle: water 110 % of control | endpoint: median survival time, dose: 14.0 mg/kg/injection, schedule: Q01DX Z (sc), vehicle: saline 120 % of control | endpoint: median survival time, dose: 16.0 mg/kg/injection, schedule: Q02DX Z (sc), vehicle: water 100 % of control | endpoint: median survival time, dose: 31.1 mg/kg/injection, schedule: Q01DX Z (sc), vehicle: water 120 % of control | endpoint: median survival time, dose: 32.0 mg/kg/injection, schedule: Q02DX Z (sc), vehicle: water 100 % of control | endpoint: median survival time, dose: 64.0 mg/kg/injection, schedule: Q01DX Z (sc), vehicle: water 118 % of control | endpoint: median survival time, dose: 65.0 mg/kg/injection, schedule: Q01DX Z (sc), vehicle: saline 100 % of control | endpoint: median survival time, dose: 86.1 mg/kg/injection, schedule: Q01DX Z (sc), vehicle: water 110 % of control | endpoint: median survival time, dose: 128.0 mg/kg/injection, schedule: Q02DX Z (sc), vehicle: water 100 % of control

CN(Cc1cnc2nc(N)nc(N)c2n1)c1cccc(C(=O)NC(CCC(=O)O)C(=O)O)c1 (stereo unspecified)
inactive: [1] 111 % of control | [2] 107 % of control | [3] 111 % of control | [4] 113 % of control | [5] 111 % of control | [6] 111 % of control | [7] 114 % of control | [8] 108 % of control | [9] 108 % of control | [10] 119 % of control

O=c1cnn(C2OC(CO)C(O)C2O)c(=O)[nH]1 (stereo unspecified)
inactive: endpoint: median survival time, dose: 37.5 mg/kg/injection, schedule: Q01DX009 (ip), vehicle: water 114 % of control | endpoint: median survival time, dose: 75.0 mg/kg/injection, schedule: Q01DX009 (ip), vehicle: water 118 % of control and 121 % of control | endpoint: median survival time, dose: 75.0 mg/kg/injection, schedule: Q01DX009 (sc), vehicle: water 120 % of control | endpoint: median survival time, dose: 108.0 mg/kg/injection, schedule: Q01DX Z (sc), vehicle: other 120 % of control | endpoint: median survival time, dose: 150.0 mg/kg/injection, schedule: Q01DX009 (ip), vehicle: water 117 % of control and 120 % of control | endpoint: median survival time, dose: 150.0 mg/kg/injection, schedule: Q01DX009 (sc), vehicle: water 121 % of control and 122 % of control | endpoint: median survival time, dose: 180.0 mg/kg/injection, schedule: Q01DX Z (sc), vehicle: other 120 % of control | endpoint: median survival time, dose: 300.0 mg/kg/injection, schedule: Q01DX009 (ip), vehicle: water 117 % of control and 123 % of control | endpoint: median survival time, dose: 300.0 mg/kg/injection, schedule: Q01DX009 (sc), vehicle: water 117 % of control and 122 % of control | endpoint: median survival time, dose: 300.0 mg/kg/injection, schedule: Q01DX Z (sc), vehicle: other 120 % of control | endpoint: median survival time, dose: 500.0 mg/kg/injection, schedule: Q01DX Z (sc), vehicle: other 120 % of control | endpoint: median survival time, dose: 600.0 mg/kg/injection, schedule: Q01DX009 (ip), vehicle: water 118 % of control | endpoint: median survival time, dose: 600.0 mg/kg/injection, schedule: Q01DX009 (sc), vehicle: water 117 % of control | endpoint: median survival time, dose: 833.0 mg/kg/injection, schedule: Q01DX Z (sc), vehicle: other 110 % of control | endpoint: median survival time, dose: 1000.0 mg/kg/injection, schedule: Q01DX Z (sc), vehicle: other 122 % of control | endpoint: median survival time, dose: 1200.0 mg/kg/injection, schedule: Q01DX009 (ip), vehicle: water 104 % of control and 117 % of control | endpoint: median survival time, dose: 1200.0 mg/kg/injection, schedule: Q01DX009 (sc), vehicle: water 114 % of control

CN(C)CCNc1ccc([N+](=O)[O-])c2sc3ccccc3c(=O)c12
inactive: endpoint: median survival time, dose: 14.0 mg/kg/injection, schedule: Q01DX Z (sc), vehicle: carboxymethylcellulose (CMC) 100 % of control | endpoint: median survival time, dose: 23.0 mg/kg/injection, schedule: Q01DX Z (sc), vehicle: carboxymethylcellulose (CMC) 100 % of control | endpoint: median survival time, dose: 39.0 mg/kg/injection, schedule: Q01DX Z (sc), vehicle: carboxymethylcellulose (CMC) 100 % of control | endpoint: median survival time, dose: 65.0 mg/kg/injection, schedule: Q01DX Z (sc), vehicle: carboxymethylcellulose (CMC) 100 % of control and 111 % of control | endpoint: median survival time, dose: 108.0 mg/kg/injection, schedule: Q01DX Z (sc), vehicle: carboxymethylcellulose (CMC) 100 % of control | endpoint: median survival time, dose: 180.0 mg/kg/injection, schedule: Q01DX Z (sc), vehicle: carboxymethylcellulose (CMC) 111 % of control | endpoint: median survival time, dose: 300.0 mg/kg/injection, schedule: Q01DX Z (sc), vehicle: carboxymethylcellulose (CMC) 105 % of control

CS(=O)(=O)OCC(=O)NCCNC(=O)COS(C)(=O)=O
inactive: [11] 105 % of control | [12] 105 % of control | [13] 110 % of control | [14] 110 % of control | [15] 115 % of control | [16] 100 % of control

Oc1cc(CN(CCCl)CCCl)c(O)cc1CN(CCCl)CCCl
inactive: endpoint: median survival time, dose: 3.0 mg/kg/injection, schedule: Q01DX Z (sc), vehicle: methylcellulose (MC) 100 % of control | endpoint: median survival time, dose: 5.0 mg/kg/injection, schedule: Q01DX Z (sc), vehicle: methylcellulose (MC) 105 % of control | endpoint: median survival time, dose: 8.4 mg/kg/injection, schedule: Q01DX Z (sc), vehicle: methylcellulose (MC) 110 % of control | endpoint: median survival time, dose: 14.0 mg/kg/injection, schedule: Q01DX Z (sc), vehicle: methylcellulose (MC) 100 % of control | endpoint: median survival time, dose: 23.0 mg/kg/injection, schedule: Q01DX Z (sc), vehicle: methylcellulose (MC) 105 % of control | [11] 110 % of control | [12] 110 % of control | [13] 120 % of control | [14] 120 % of control

O=C1CCC(N2C(=O)c3ccccc3C2=O)C(=O)N1 (stereo unspecified)
inactive: endpoint: median survival time, dose: 6.0 mg/kg/injection, schedule: Q01DX Z (sc), vehicle: methylcellulose (MC) 100 % of control | endpoint: median survival time, dose: 12.0 mg/kg/injection, schedule: Q01DX Z (sc), vehicle: methylcellulose (MC) 100 % of control | endpoint: median survival time, dose: 24.0 mg/kg/injection, schedule: Q01DX Z (sc), vehicle: methylcellulose (MC) 100 % of control | endpoint: median survival time, dose: 48.0 mg/kg/injection, schedule: Q01DX Z (sc), vehicle: methylcellulose (MC) 100 % of control | [12] 100 % of control | [13] 94 % of control | [14] 88 % of control | [15] 100 % of control | [16] 100 % of control

CC[C@H](c1ccc(O)cc1)[C@@H](CC)c1ccc(O)cc1
inactive: [11] 100 % of control | [12] 100 % of control | [13] 100 % of control

Nc1nc2c(c(=O)[nH]1)N=C(CNc1ccc(C(=O)NC(CCC(=O)O)C(=O)O)cc1)CN2 (stereo unspecified)
inactive: [1] 95 % of control | [2] 94 % of control | [3] 98 % of control | [4] 98 % of control | [5] 94 % of control | [6] 100 % of control | [7] 102 % of control | [8] 96 % of control | [9] 98 % of control | [10] 96 % of control
